Source: patent US9758527B2, “Cyclohexene derivative, preparation method therefor, and pharmaceutical composition for preventing or treating metabolic diseases, containing same as active ingredient” (HYUNDAI PHARM CO., LTD., priority 2014, dated 2017)
Read-outs that look alike come from different tables or passages of the source.

Molecular target: T1, G protein-coupled receptor 119 (GPR-119) (Mesocricetus auratus, UniProt A0A1U8CD06)
T1 construct: hamster-derived β-cells containing G protein-coupled receptor 119 (GPR-119), HIT-T15 cells; host or cells: HIT-T15 (hamster pancreatic β-cells)
T1 sequence (A0A1U8CD06 1-334): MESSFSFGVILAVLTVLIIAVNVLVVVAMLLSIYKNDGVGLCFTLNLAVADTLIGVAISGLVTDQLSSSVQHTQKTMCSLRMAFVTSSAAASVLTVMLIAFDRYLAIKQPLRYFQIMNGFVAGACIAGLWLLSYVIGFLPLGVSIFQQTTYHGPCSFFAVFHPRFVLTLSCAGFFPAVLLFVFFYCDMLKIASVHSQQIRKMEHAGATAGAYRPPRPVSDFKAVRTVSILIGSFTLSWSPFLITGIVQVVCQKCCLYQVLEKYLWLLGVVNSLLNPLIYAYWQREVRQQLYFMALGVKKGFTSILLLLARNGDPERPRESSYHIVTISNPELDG
Test: Evaluation of cAMP activity in HIT-T15 cells (HTRF cAMP dynamic kit)
Format: cell-based, hamster
Conditions: cAMP activation
Procedure, shortened: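 HIT-T15 cells, 60,000/well, treated next day with compound at six concentrations ([…]) for 1 h at 37° C. Lysate cAMP quantified by HTRF competitive immunoassay (D2-cAMP, cryptate anti-cAMP); activity taken as change in FRET signal relative to DMSO.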

[1] = 1 h at 37° C., six concentrations, read-out: EC50

SMILES | EC50 [1] | EC50 (read-out: EC50 value)
CC(C)c1noc(N2CCC(COc3ccc(C4=CCC(C(=O)N[C@@H](C)CO)CC4)cc3F)CC2)n1 (stereo partly drawn) [Example 83, 4-(3-fluoro-4-((1-(3-isopropyl-1,2,4-oxadiazol-5-yl)piperidin-4-yl)methoxy)phenyl)-N-((S)-1-hydroxypropan-2-yl)cyclohex-3-enecarboxamide] | 75 nM | 
CC(C)c1noc(N2CCC(COc3ccc(C4=CCC(C(=O)N[C@H](C)CO)CC4)cc3F)CC2)n1 (stereo partly drawn) [Example 84, 4-(3-fluoro-4-((1-(3-isopropyl-1,2,4-oxadiazol-5-yl)piperidin-4-yl)methoxy)phenyl)-N-((R)-1-hydroxypropan-2-yl)cyclohex-3-enecarboxamide] | 30 nM | ≤ 50 nM
CC(C)(C)OC(=O)N1CCC(COc2ccc(C3=CCC(C(=O)NCC(F)F)CC3)cc2F)CC1 (stereo not shown) [Example 85, tert-butyl 4-((4-(4-(2,2-difluoroethylcarbamoyl)cyclohex-1-enyl)-2-fluorophenoxy)methyl)piperidine-1-carboxylate] | 18 nM | ≤ 50 nM
CC(C)(C)OC(=O)N1CCC(COc2ccc(C3=CCC(C(=O)NCC(F)(F)F)CC3)cn2)CC1 (stereo not shown) [Example 86, tert-butyl 4-((5-(4-(2,2,2-trifluoroethylcarbamoyl)cyclohex-1-enyl)pyridin-2-yloxy)methyl)piperidine-1-carboxylate] | 130 nM | 
CC(C)(C)OC(=O)N1CCC(COc2ccc(C3=CCC(C(=O)NCC(F)F)CC3)cn2)CC1 (stereo not shown) [Example 87, tert-butyl 4-((5-(4-(2,2-difluoroethylcarbamoyl)cyclohex-1-enyl)pyridin-2-yloxy)methyl)piperidine-1-carboxylate] | 70 nM | 
CC(C)(C)OC(=O)N1CCC(COc2ccc(C3=CCC(C(=O)NCCF)CC3)cn2)CC1 (stereo not shown) [Example 88, tert-butyl 4-((5-(4-(2-fluoroethylcarbamoyl)cyclohex-1-enyl)pyridin-2-yloxy)methyl)piperidine-1-carboxylate] | 130 nM | 
CC(C)c1noc(N2CCC(COc3ccc(C4=CCC(C(=O)N5CCN(C6CC6)CC5)CC4)cc3)CC2)n1 (stereo not shown) [Example 89, (4-cyclopropylpiperazin-1-yl)(4-(4-((1-(3-isopropyl-1,2,4-oxadiazol-5-yl)piperidin-4-yl)methoxy)phenyl)cyclohex-3-enyl)methanone] | 21 nM | ≤ 50 nM
CC(C)(C)OC(=O)N1CCC(COc2ccc(C3=CCC(C(=O)N4CC[C@@H](F)C4)CC3)cn2)CC1 (stereo partly drawn) [Example 90, tert-butyl 4-((5-(4-((R)-3-fluoropyrrolidine-1-carbonyl)cyclohex-1-enyl)pyridin-2-yloxy)methyl)piperidine-1-carboxylate] | 24 nM | ≤ 50 nM
CC(C)(C)OC(=O)N1CCC(COc2ccc(C3=CCC(C(=O)N4CC[C@H](F)C4)CC3)cn2)CC1 (stereo partly drawn) [Example 91, tert-butyl 4-((5-(4-((S)-3-fluoropyrrolidine-1-carbonyl)cyclohex-1-enyl)pyridin-2-yloxy)methyl)piperidine-1-carboxylate] | 28 nM | ≤ 50 nM
CC(C)c1noc(N2CCC(COc3ccc(C4=CCC(C(=O)NCC(F)(F)F)CC4)cc3F)CC2)n1 (stereo not shown) [Example 92, 4-(3-fluoro-4-((1-(3-isopropyl-1,2,4-oxadiazol-5-yl)piperidin-4-yl)methoxy)phenyl)-N-(2,2,2-trifluoroethyl)cyclohex-3-enecarboxamide] | 64 nM | 
CC(C)c1noc(N2CCC(COc3ccc(C4=CCC(C(=O)NCC(F)F)CC4)cc3F)CC2)n1 (stereo not shown) [Example 93, N-(2,2-difluoroethyl)-4-(3-fluoro-4-((1-(3-isopropyl-1,2,4-oxadiazol-5-yl)piperidin-4-yl)methoxy)phenyl)cyclohex-3-enecarboxamide] | 50 nM | ≤ 50 nM
CC(C)c1noc(N2CCC(COc3ccc(C4=CCC(C(=O)NCCF)CC4)cc3F)CC2)n1 (stereo not shown) [Example 94, 4-(3-fluoro-4-((1-(3-isopropyl-1,2,4-oxadiazol-5-yl)piperidin-4-yl)methoxy)phenyl)-N-(2-fluoroethyl)cyclohex-3-enecarboxamide] | 68 nM | 

More lines, now with the values ahead:

EC50 [1] | EC50 (read-out: EC50 value) | SMILES
16 nM |  | CC(C)c1noc(N2CCC(COc3ccc(C4=CCC(C(=O)N5CC[C@H](F)C5)CC4)cc3F)CC2)n1 (stereo partly drawn) [Example 95, (4-(3-fluoro-4-((1-(3-isopropyl-1,2,4-oxadiazol-5-yl)piperidin-4-yl)methoxy)phenyl)cyclohex-3-enyl)((S)-3-fluoropyrrolidin-1-yl)methanone]
27 nM | ≤ 50 nM | CC(C)c1noc(N2CCC(COc3ccc(C4=CCC(C(=O)N5CC[C@@H](F)C5)CC4)cc3F)CC2)n1 (stereo partly drawn) [Example 96, (4-(3-fluoro-4-((1-(3-isopropyl-1,2,4-oxadiazol-5-yl)piperidin-4-yl)methoxy)phenyl)cyclohex-3-enyl)((R)-3-fluoropyrrolidin-1-yl)methanone]
8.4 nM | ≤ 50 nM | CC(C)c1noc(N2CCC(COc3ccc(C4=CCC(C(=O)N5CCOCC5)CC4)cc3F)CC2)n1 (stereo not shown) [Example 97, (4-(3-fluoro-4-((1-(3-isopropyl-1,2,4-oxadiazol-5-yl)piperidin-4-yl)methoxy)phenyl)cyclohex-3-enyl)(morpholino)methanone]
6.1 nM | ≤ 50 nM | CC(C)c1noc(N2CCC(COc3ccc(C4=CCC(C(=O)N5CCSCC5)CC4)cc3F)CC2)n1 (stereo not shown) [Example 98, (4-(3-fluoro-4-((1-(3-isopropyl-1,2,4-oxadiazol-5-yl)piperidin-4-yl)methoxy)phenyl)cyclohex-3-enyl)(thiomorpholino)methanone]
160 nM |  | CC(C)c1noc(N2CCC(COc3ccc(C4=CCC(C(=O)NCC(F)F)CC4)nc3)CC2)n1 (stereo not shown) [Example 99, N-(2,2-difluoroethyl)-4-(5-((1-(3-isopropyl-1,2,4-oxadiazol-5-yl)piperidin-4-yl)methoxy)pyridin-2-yl)cyclohex-3-enecarboxamide]
95 nM |  | CC(C)c1noc(N2CCC(COc3ccc(C4=CCC(C(=O)N5CCOCC5)CC4)nc3)CC2)n1 (stereo not shown) [Example 100, (4-(5-((1-(3-isopropyl-1,2,4-oxadiazol-5-yl)piperidin-4-yl)methoxy)pyridin-2-yl)cyclohex-3-enyl)(morpholino)methanone]
110 nM |  | CC(C)c1noc(N2CCC(COc3ccc(C4=CCC(C(=O)N5CC[C@@H](F)C5)CC4)nc3)CC2)n1 (stereo partly drawn) [Example 101, ((R)-3-fluoropyrrolidin-1-yl)(4-(5-((1-(3-isopropyl-1,2,4-oxadiazol-5-yl)piperidin-4-yl)methoxy)pyridin-2-yl)cyclohex-3-enyl)methanone]
52 nM |  | CC(C)c1noc(N2CCC(COc3ccc(C4=CCC(C(=O)N5CC[C@H](F)C5)CC4)nc3)CC2)n1 (stereo partly drawn) [Example 102, ((S)-3-fluoropyrrolidin-1-yl)(4-(5-((1-(3-isopropyl-1,2,4-oxadiazol-5-yl)piperidin-4-yl)methoxy)pyridin-2-yl)cyclohex-3-enyl)methanone]
75 nM |  | CCc1cnc(N2CCC(COc3ccc(C4=CCC(C(=O)NCC(F)(F)F)CC4)cc3)CC2)nc1 (stereo not shown) [Example 103, 4-(4-((1-(5-ethylpyrimidin-2-yl)piperidin-4-yl)methoxy)phenyl)-N-(2,2,2-trifluoroethyl)cyclohex-3-enecarboxamide]
70 nM |  | CCc1cnc(N2CCC(COc3ccc(C4=CCC(C(=O)NCCF)CC4)cc3)CC2)nc1 (stereo not shown) [Example 104, 4-(4-((1-(5-ethylpyrimidin-2-yl)piperidin-4-yl)methoxy)phenyl)-N-(2-fluoroethyl)cyclohex-3-enecarboxamide]
43 nM | ≤ 50 nM | CCc1cnc(N2CCC(COc3ccc(C4=CCC(C(=O)N5CCC[C@H]5C(N)=O)CC4)cc3)CC2)nc1 (stereo partly drawn) [Example 105, (2S)-1-(4-(4-((1-(5-ethylpyrimidin-2-yl)piperidin-4-yl)methoxy)phenyl)cyclohex-3-enecarbonyl)pyrrolidine-2-carboxamide]
22 nM | ≤ 50 nM | CCc1cnc(N2CCC(COc3ccc(C4=CCC(C(=O)N5CCC[C@H]5C#N)CC4)cc3)CC2)nc1 (stereo partly drawn) [Example 106, (2S)-1-(4-(4-((1-(5-ethylpyrimidin-2-yl)piperidin-4-yl)methoxy)phenyl)cyclohex-3-enecarbonyl)pyrrolidine-2-carbonitrile]
35 nM | ≤ 50 nM | CC(C)(C)OC(=O)N1CCC(COc2ccc(C3=CCC(C(=O)N4CCC[C@H]4C(N)=O)CC3)cc2F)CC1 (stereo partly drawn) [Example 107, tert-butyl 4-((4-(4-((S)-2-carbamoylpyrrolidine-1-carbonyl)cyclohex-1-enyl)-2-fluorophenoxy)methyl)piperidine-1-carboxylate]
55 nM |  | CC(C)c1noc(N2CCC(COc3ccc(C4=CCC(C(=O)N5CCC[C@H]5C(N)=O)CC4)cc3F)CC2)n1 (stereo partly drawn) [Example 108, (2S)-1-(4-(3-fluoro-4-((1-(3-isopropyl-1,2,4-oxadiazol-5-yl)piperidin-4-yl)methoxy)phenyl)cyclohex-3-enecarbonyl)pyrrolidine-2-carboxamide]
190 nM |  | COC(=O)CNC(=O)C1CC=C(c2ccc(OCC3CCN(c4nc(C(C)C)no4)CC3)c(F)c2)CC1 (stereo not shown) [Example 109]
110 nM |  | CCOC(=O)CCNC(=O)C1CC=C(c2ccc(OCC3CCN(c4nc(C(C)C)no4)CC3)c(F)c2)CC1 (stereo not shown) [Example 110, ethyl 3-(4-(3-fluoro-4-((1-(3-isopropyl-1,2,4-oxadiazol-5-yl)piperidin-4-yl)methoxy)phenyl)cyclohex-3-enecarboxamido)propanoate]
